Assay results: patent USRE42890E1, “Furazanobenzimidazoles” (Basilea Pharmaceutica AG, priority 2003, dated 2011)

System: Jurkat
Test: MTS proliferation assay, Jurkat
Type: cell-based, human
Conditions: 72 h incubation, read-out: MTS proliferation assay IC 50 Jurkat
How it was run: (§1)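 Proliferation: RPMI-1640/FCS complete medium, 37 °C, 7.5% CO2, cells plated 24 h pre-dose; compounds at 10, 3, 1, 0.3 μM final for 72 h; MTS, 492 nm.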

Row | SMILES | IC50
1 | COc1ccc(C(=O)Cn2c(-c3nonc3N)nc3cc(OC)c(OC)cc32)cc1 [Example 116] | > 1000 nM

System: HT1080
Test: MTS proliferation assay, HT1080
Type: cell-based, human
Conditions: HT1080, 72 h incubation; read-out: MTS proliferation assay IC 50 HT1080
Method: Cell lines are cultured in RPMI-1640 tissue culture medium containing either 5% or 10% fetal calf serum, 0.05 mM 2-mercaptoethanol, 2 mM glutamine and penicillin/streptomycin 50 μg/ml (complete medium) (Sigma, Buchs, Switzerland). General growth conditions are 37° C. and 7.5% CO2.
The following human cell lines (either EGFP transfected or not) are being used: HeLa (ATCC: CCL-2), KB (ATCC: CCL-17), MCF7 (ATCC: HTB-22), SK-BR-3 (ATCC: HTB-30), SK-Mel 1 (ATCC: HTB-67), SK-Mel 28 (ATCC: HTB-72), PC-3 (ATCC: CRL-1435), SW 480 (ATCC: CCL-228), NCl-H460 (ATCC: HTB-177), NCl-H1792 (ATCC: CRL-5895), HT1080 (ATCC: CCL-21), Jurkat (ATCC: TIB-152), Ramos (ATCC: CRL-1596), Raji (ATCC: CCL-86), H9 (ATCC: HTB-176), Hut78 (ATCC: TIB-161), K562 (ATCC: CCL 243), HL-60 (ATCC: CCL 240), U-87MG (ATCC: HTB-14), HepG2 (ATCC: HB-8065), U-2 OS (ATCC: HTB-96), Saos-2 (ATCC: HTB-85), U937 (ATCC: CRL 1593), Hs 578T (ATCC: HTB 126), HBL-100 (ATCC: HTB 124), Molt-4 (ATCC: CRL 1582).
The assay is performed in 96 well tissue culture plates. The cells (range: 1.5*10^3-10^4) are seeded out in 80 μl complete medium 24 h prior to compound treatment. The test compounds are added in 20 μl complete medium containing max 5% DMSO. The final compound concentrations in the assays are 10 μM, 3 μM, 1 μM and 0.3 μM, respectively. The assay plates are incubated for 72 h at culture conditions. The MTS reagent is prepared according to the manufacturer's protocol (Promega G1111). 20 μl MTS reagent are added to each well, the assay plates are quickly spun and incubated for another 3 h at culture conditions. Subsequently, the plates are shortly shaked and absorption measured with a microplate-reader at 492 nm.

Row | SMILES | IC50
2 | COc1ccc(C(=O)Cn2c(-c3nonc3N)nc3cc(OC)c(OC)cc32)cc1 [Example 116] | > 1000 nM

System: HeLa
Test: MTS proliferation assay, HeLa
Type: cell-based, human
Conditions: 72 h incubation, read-out: MTS proliferation assay IC 50 HeLa
How it was run: as §1

Row | SMILES | IC50
3 | COc1ccc(C(=O)Cn2c(-c3nonc3N)nc3cc(OC)c(OC)cc32)cc1 [Example 116] | > 1000 nM

System: MRC5
Test: MTS proliferation assay, MRC5
Type: cell-based
Conditions: MRC5, 72 h incubation; read-out: MTS proliferation assay IC 50 MRC5
How it was run: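 Viability after 72 h compound exposure at 10, 3, 1 and 0.3 μM final was scored by MTS absorbance (492 nm, 3 h reagent incubation), with cells kept in RPMI-1640 containing 5% or 10% fetal calf serum.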

Row | SMILES | IC50
4 | COc1ccc(C(=O)Cn2c(-c3nonc3N)nc3cc(OC)c(OC)cc32)cc1 [Example 116] | > 1000 nM

System: adherent cells or suspension cells
Test: Hoechst 33342 nuclear staining (fraction of apoptotic nuclei)
Type: cell-based
Design: key: 0 relating to no activity; 1 relating to weak activity comprising less than 70% of the cells; score 2 relating to strong activity comprising more than 70% of the cells
Conditions: H460, conc 0.01 μm

Row | SMILES | Hoechst 33342 nuclear staining score
5 | COc1ccc(C(=O)Cn2c(-c3nonc3N)nc3cc(OC)c(OC)cc32)cc1 [Example 116] | 0

Same assay, conditions: H460, conc 0.1 μm

Row | SMILES | Hoechst 33342 nuclear staining score
6 | COc1ccc(C(=O)Cn2c(-c3nonc3N)nc3cc(OC)c(OC)cc32)cc1 [Example 116] | 0

Same assay, conditions: H460, conc 1 μm

Row | SMILES | Hoechst 33342 nuclear staining score
7 | COc1ccc(C(=O)Cn2c(-c3nonc3N)nc3cc(OC)c(OC)cc32)cc1 [Example 116] | 0

Same assay, conditions: HeLa, conc 0.01 μm

Row | SMILES | Hoechst 33342 nuclear staining score
8 | COc1ccc(C(=O)Cn2c(-c3nonc3N)nc3cc(OC)c(OC)cc32)cc1 [Example 116] | 0

Same assay, conditions: HeLa, conc 0.1 μm

Row | SMILES | Hoechst 33342 nuclear staining score
9 | COc1ccc(C(=O)Cn2c(-c3nonc3N)nc3cc(OC)c(OC)cc32)cc1 [Example 116] | 0

Same assay, conditions: HeLa, conc 1 μm

Row | SMILES | Hoechst 33342 nuclear staining score
10 | COc1ccc(C(=O)Cn2c(-c3nonc3N)nc3cc(OC)c(OC)cc32)cc1 [Example 116] | 0

Same assay, conditions: Jily, conc 0.01 μm

Row | SMILES | Hoechst 33342 nuclear staining score
11 | COc1ccc(C(=O)Cn2c(-c3nonc3N)nc3cc(OC)c(OC)cc32)cc1 [Example 116] | 0

Same assay, conditions: Jily, conc 0.1 μm

Row | SMILES | Hoechst 33342 nuclear staining score
12 | COc1ccc(C(=O)Cn2c(-c3nonc3N)nc3cc(OC)c(OC)cc32)cc1 [Example 116] | 0

Same assay, conditions: Jily, conc 1 μm

Row | SMILES | Hoechst 33342 nuclear staining score
13 | COc1ccc(C(=O)Cn2c(-c3nonc3N)nc3cc(OC)c(OC)cc32)cc1 [Example 116] | 0

Same assay, conditions: Jurkat, conc 0.01 μm

Row | SMILES | Hoechst 33342 nuclear staining score
14 | COc1ccc(C(=O)Cn2c(-c3nonc3N)nc3cc(OC)c(OC)cc32)cc1 [Example 116] | 0

Same assay, conditions: Jurkat, conc 0.1 μm

Row | SMILES | Hoechst 33342 nuclear staining score
15 | COc1ccc(C(=O)Cn2c(-c3nonc3N)nc3cc(OC)c(OC)cc32)cc1 [Example 116] | 0

Same assay, conditions: Jurkat, conc 1 μm

Row | SMILES | Hoechst 33342 nuclear staining score
16 | COc1ccc(C(=O)Cn2c(-c3nonc3N)nc3cc(OC)c(OC)cc32)cc1 [Example 116] | 0

Same assay, conditions: MRC5, conc 0.01 μm

Row | SMILES | Hoechst 33342 nuclear staining score
17 | COc1ccc(C(=O)Cn2c(-c3nonc3N)nc3cc(OC)c(OC)cc32)cc1 [Example 116] | 0

Same assay, conditions: MRC5, conc 0.1 μm

Row | SMILES | Hoechst 33342 nuclear staining score
18 | COc1ccc(C(=O)Cn2c(-c3nonc3N)nc3cc(OC)c(OC)cc32)cc1 [Example 116] | 0

Same assay, conditions: MRC5, conc 1 μm

Row | SMILES | Hoechst 33342 nuclear staining score
19 | COc1ccc(C(=O)Cn2c(-c3nonc3N)nc3cc(OC)c(OC)cc32)cc1 [Example 116] | 0

Same assay, conditions: PBLs, conc 0.01 μm

Row | SMILES | Hoechst 33342 nuclear staining score
20 | COc1ccc(C(=O)Cn2c(-c3nonc3N)nc3cc(OC)c(OC)cc32)cc1 [Example 116] | 0

Same assay, conditions: PBLs, conc 0.1 μm

Row | SMILES | Hoechst 33342 nuclear staining score
21 | COc1ccc(C(=O)Cn2c(-c3nonc3N)nc3cc(OC)c(OC)cc32)cc1 [Example 116] | 0

Same assay, conditions: PBLs, conc 1 μm

Row | SMILES | Hoechst 33342 nuclear staining score
22 | COc1ccc(C(=O)Cn2c(-c3nonc3N)nc3cc(OC)c(OC)cc32)cc1 [Example 116] | 0
